{"source": "paper PMC2120548", "about": "(The Journal of Cell Biology, 1995)", "key": {"[1]": {"test_system": "MG-63 osteosarcoma cells, fibronectin", "experiment": "Cell attachment assay on fibronectin", "format": "cell-based", "conditions": "MG-63 cells, 30 min, crystal violet OD600, mean of triplicate wells"}, "[2]": {"test_system": "MG-63 osteosarcoma cells, type IV collagen", "experiment": "Cell attachment assay on type IV collagen", "format": "cell-based", "conditions": "MG-63 cells, 30 min, crystal violet OD600, mean of triplicate wells"}, "[3]": {"test_system": "MG-63 osteosarcoma cells, vitronectin", "experiment": "Cell attachment assay on vitronectin", "format": "cell-based", "conditions": "MG-63 cells, 30 min, crystal violet OD600, mean of triplicate wells"}, "[4]": {"experiment": "Inhibition of RGD-phage attachment to immobilized peptides", "format": "binding", "conditions": "soluble peptide 1 mM; mean of triplicate wells, Fig. 3 c"}, "[5]": {"experiment": "Inhibition of RGD-phage binding to immobilized beta 3"}, "[6]": {"experiment": "Inhibition of WDDGWL-phage attachment to immobilized peptides", "format": "binding", "conditions": "soluble peptide 1 mM; mean of triplicate wells, Fig. 3 b"}, "[7]": {"test_system": "beta 3 subunit of purified alpha IIb beta 3", "experiment": "Immunoblot of purified alpha IIb beta 3", "format": "binding"}, "fibronectin": {"test_system": "fibronectin", "experiment": "Affinity chromatography on *[…]*-Sepharose", "format": "binding, Human"}, "RGD-phage": {"experiment": "RGD-phage", "format": "binding", "conditions": "peptide coated at 20 μg/ml; mean of triplicate wells"}, "[8]": {"test_system": "beta 1 and beta 3 integrin subunits in MG-63 total cell extracts", "experiment": "Immunoblot of MG-63 cell extracts", "format": "binding", "conditions": "peptide 100 μM, Fig. 7 b lanes C and D"}, "[9]": {"test_system": "III8-11 fibronectin fragment / WDDGWL-phage", "experiment": "Inhibition of WDDGWL-phage binding to fibronectin fragment by peptides", "conditions": "soluble competitor, microtiter assay, Fig. 2 b"}, "[10]": {"test_system": "fibronectin type III10 (RGD-containing) fragments", "experiment": "Panning of phage display peptide libraries on fibronectin fragments", "format": "binding", "conditions": "Table I"}, "[11]": {"experiment": "Fibronectin on control peptide column", "format": "binding", "conditions": "not shown"}, "RGD-mimic OPG2 antibody": {"test_system": "RGD-mimic OPG2 antibody", "conditions": "aspartic acid residues of DDLW mutated to alanines; ref Bajt et al. (3); cited from earlier work"}, "fibrinogen": {"test_system": "fibrinogen", "conditions": "aspartic acid residues of DDLW mutated to alanines; cited from earlier work"}, "[12]": {"experiment": "WDDGWL-phage attachment to immobilized peptide", "format": "binding", "conditions": "peptide coated at 20 μg/ml; mean of triplicate wells"}, "[13]": {"test_system": "fibronectin fragment III8,9 (RGD-)", "experiment": "Phage attachment assay on fibronectin fragment III8,9", "format": "binding", "conditions": "microtiter wells, OD600, mean of triplicates"}, "[14]": {"test_system": "control proteins (BSA and GST)", "experiment": "Phage attachment assay on control proteins", "format": "binding", "conditions": "microtiter wells, OD600, mean of triplicates"}, "[15]": {"test_system": "fibronectin and fibronectin fragments containing the RGD sequence (III10)", "experiment": "Phage attachment assay on fibronectin and RGD-containing fibronectin fragments", "format": "binding, Human"}, "[16]": {"test_system": "fragment encompassing the alternatively spliced cell attachment domain of fibronectin", "experiment": "Phage attachment assay on alternatively spliced fibronectin fragment", "format": "binding", "conditions": "not shown"}}, "note": "Ends that are not written are not given here.", "data": [{"compound": "*CVRLNSLAC* (disulfide) [reference compound]", "values": [{"measurement": "inhibition of cell attachment", "setting": "[1]", "result": "no effect on any of the substrates"}, {"measurement": "inhibition of cell attachment", "setting": "[2]", "result": "no effect on any of the substrates"}, {"measurement": "inhibition of cell attachment", "setting": "[3]", "result": "no effect on any of the substrates"}]}, {"compound": "*CWDDGWLC* (disulfide)", "values": [{"measurement": "inhibition of RGD-phage binding to immobilized peptide", "setting": "[4]", "result": "inhibited by both peptides"}, {"measurement": "inhibition of RGD-phage binding", "setting": "[5]; soluble peptide, Fig. 6 b", "result": "blocked"}, {"measurement": "inhibition of WDDGWL-phage binding to immobilized peptide", "setting": "[6]", "result": "blocked the WDDGWL-phage binding"}, {"measurement": "inhibition of cell attachment", "setting": "[1]", "result": "inhibited cell adhesion"}, {"measurement": "effect of peptide on reactivity of positive control antibodies", "setting": "[7]; Fig. 7 a or b, also MG-63 extracts", "result": "no ef- fect on the reactivity of the positive control antibodies"}, {"measurement": "reactivity of the anti-*CWDDGWLC* serum after preincubation with peptide", "setting": "[7]; peptide 100 μM, Fig. 7 a lanes C and D", "result": "abrogated"}, {"measurement": "binding of fibronectin to peptide-Sepharose", "setting": "fibronectin; fibronectin 2 mg, TBS, SDS-PAGE", "result": "fibronectin bound to *CWDDGWLC*-Sepharose"}, {"measurement": "binding of RGD-phage to immobilized peptide", "setting": "RGD-phage", "result": "can bind to the *CWDDGWLC*-containing"}, {"measurement": "reactivity of the anti-WDDGWL serum after preincubation with peptide", "setting": "[8]", "result": "abrogated"}, {"measurement": "inhibition of WDDGWL-phage binding", "setting": "[9]", "result": "in a dose-dependent manner"}, {"measurement": "inhibition of cell attachment", "setting": "[2]", "result": "not on collagen"}, {"measurement": "inhibition of cell attachment", "setting": "[3]", "result": "inhibited cell adhesion"}]}, {"compound": "WDDLWWL", "values": [{"measurement": "number of phage displaying the same amino acid motif", "setting": "[10]; RGD elution", "result": 10}]}, {"compound": "Fibronectin", "values": [{"measurement": "retention on control unrelated peptide column", "setting": "[11]", "result": "not retained"}]}, {"compound": "WDDGWM", "values": [{"measurement": "number of phage displaying the same amino acid motif", "setting": "[10]; RGD elution", "result": 4}]}, {"compound": "WDDGLM", "values": [{"measurement": "number of phage displaying the same amino acid motif", "setting": "[10]; RGD elution", "result": 7}]}, {"compound": "DYWLGF", "values": [{"measurement": "number of phage displaying the same amino acid motif", "setting": "[10]; direct infection of wells", "result": 1}]}, {"compound": "FVLWLV", "values": [{"measurement": "number of phage displaying the same amino acid motif", "setting": "[10]; direct infection of wells", "result": 1}]}, {"compound": "LVWLLVQFY", "values": [{"measurement": "number of phage displaying the same amino acid motif", "setting": "[10]; EDTA elution", "result": 2}]}, {"compound": "QRIVLGFT", "values": [{"measurement": "number of phage displaying the same amino acid motif", "setting": "[10]; direct infection of wells", "result": 1}]}, {"compound": "PDDLWWL", "values": [{"measurement": "number of phage displaying the same amino acid motif", "setting": "[10]; direct infection of wells", "result": 3}]}, {"compound": "O=C(O)CN(CCN(CC(=O)O)CC(=O)O)CC(=O)O", "note": "[EDTA, reference compound]", "values": [{"measurement": "effect of EDTA on RGD-phage binding", "setting": "[5]; peptides coated in the presence of cations, EDTA 10 mM", "result": "did not block phage binding"}]}, {"compound": "TLRFQRS", "values": [{"measurement": "number of phage displaying the same amino acid motif", "setting": "[10]; EDTA elution", "result": 1}]}, {"compound": "GRGESP", "values": [{"measurement": "elution of fibronectin from *CWDDGWLC*-Sepharose", "setting": "fibronectin; eluting peptide 1 mM, SDS-PAGE", "result": "not with the GRGESP peptide"}]}, {"compound": "BSA: control protein", "values": [{"measurement": "retention on *CWDDGWLC*-Sepharose column", "setting": "fibronectin; proteins other than fibronectin", "result": "not retained"}]}, {"compound": "SWDDGWL", "values": [{"measurement": "number of phage displaying the same amino acid motif", "setting": "[10]; direct infection of wells", "result": 6}]}, {"compound": "mutant alIb[33 integrin: integrin with aspartic acid residues of DDLW mutated to alanines (ref 3)", "values": [{"measurement": "binding to OPG2 antibody", "setting": "RGD-mimic OPG2 antibody", "result": "lost"}, {"measurement": "binding to fibrinogen", "setting": "fibrinogen", "result": "did not appreciably affect the binding"}]}, {"compound": "DGWLGF", "values": [{"measurement": "number of phage displaying the same amino acid motif", "setting": "[10]; direct infection of wells", "result": 2}]}, {"compound": "A*CRGDGWMC*G (disulfide) [reference compound]", "values": [{"measurement": "inhibition of RGD-phage binding to immobilized peptide", "setting": "[4]", "result": "inhibited by both peptides"}, {"measurement": "inhibition of WDDGWL-phage binding to immobilized peptide", "setting": "[6]", "result": "blocked the WDDGWL-phage binding"}, {"measurement": "binding of WDDGWL-phage to immobilized peptide", "setting": "[12]", "result": "WDDGWL-phage can bind to the RGD-containing peptide"}, {"measurement": "binding of RGD-phage to immobilized peptide", "setting": "RGD-phage", "result": "slight, but consistent, binding"}, {"measurement": "inhibition of WDDGWL-phage binding", "setting": "[9]", "result": "in a dose-dependent manner"}]}, {"compound": "WDDGWL (disulfide (positions not given here))", "values": [{"measurement": "phage binding", "setting": "[13]", "result": "minimal"}, {"measurement": "phage binding", "setting": "[14]", "result": "minimal"}, {"measurement": "divalent cation requirement of phage binding", "setting": "[15]", "result": "did not require divalent cations"}, {"measurement": "number of phage displaying the same amino acid motif", "setting": "[10]; EDTA elution", "result": 21}, {"measurement": "number of phage displaying the same amino acid motif", "setting": "[10]; RGD elution", "result": 131}, {"measurement": "number of phage displaying the same amino acid motif", "setting": "[10]; direct infection of wells", "result": 45}, {"measurement": "phage binding", "setting": "[16]", "result": "minimal"}]}, {"compound": "GNRLR", "values": [{"measurement": "number of phage displaying the same amino acid motif", "setting": "[10]; direct infection of wells", "result": 1}]}]}
